Results as given in US20010008892A1 (priority 1998, published 2001).

What was measured:
MT4 cells = test: Cytotoxicity in MT4 cells (LC50, 50% of the cells remain viable); assay type: cell-based; conditions: MT4 cells; concentration at which 50% of the cells remain viable
Description: (§1) The IC50 is the concentration of compound that gives 50% inhibition of the cytopathic effect of HIV. The LC50 is the concentration of compound at which 50% of the cells remain viable.

HIV = test: Antiviral activity: inhibition of the cytopathic effect of HIV in MT4 cells; assay type: cell-based; conditions: MT4 cells; 50% inhibition of the cytopathic effect of HIV; read-out: EC50
Description: as §1

HIV-1 protease = HIV-1 protease (Human immunodeficiency virus type 1 group M subtype B, UniProt P04585); test: Fluorogenic assay for screening inhibitors of HIV protease; conditions: compound concentration 0.5 nM; fluorogenic substrate 1.3 μM, pH 4.5, 30° C.
Description: A compound of the invention is dissolved in DMSO. A small aliquot is diluted with DMSO to 100 times the final concentration desired for testing. The test is carried out in a 6×50 mm tube in a total volume of 300 microliters. The final concentrations of the components in the reaction buffer are: 125 mM sodium acetate, 1 M sodium chloride, 5 mM dithiothreitol, 0.5 mg/ml bovine serum albumin, 1.3 μM fluorogenic substrate, 2% (v/v) dimethylsulfoxide, pH 4.5. After addition of inhibitor, the reaction mixture is placed in the fluorometer cell holder and incubated at 30° C. for several minutes. The reaction is initiated by the addition of a small aliquot of cold HIV protease. The fluorescence intensity (excitation 340 nm, emmision 490 nM) is recorded as a function of time. The reaction rate is determined for the first six to eight minutes. The observed rate is directly proportional to the moles of substrate cleaved per unit time. The percent inhibition is 100×(1- (rate in presence of inhibitor)/(rate in absence of inhibitor)).
The test compounds were then tested at a concentration of 0.5 nM.

Row | Compound | CC50 (MT4 cells) | EC50 (HIV) | % Inhib. (0.5 nM) (HIV-1 protease)
1 | 2-(1-Methylethyl)-4-thiazolylmethyl-(1S)-1-[[[(1S,2R)-3-[[(4-aminophenyl)sulfonyl](1-methylethyl)amino]-2-hydroxy-1-(phenylmethyl)propyl]amino]carbonyl]-2-methylpropyl]carbamate [Example 28] | 49.5 µM | 0.011 µM | 77%
2 | 2-(1-Methylethyl)-4-thiazolylmethyl-[(1S)-1-[[[(1S,2R)-3-[(2S)-2-[[(1,1-dimethylethyl)amino]carbonyl]-4-(5-thienylmethyl)-1-piperazinyl]-2-hydroxy-1-(phenylmethyl)propyl]amino]carbonyl]-2-methylpropyl]carbamate [Example 4] | 69 µM | 0.012 µM | 67%
3 | 2-(1-Methylethyl)-4-thiazolylmethyl-[(1S)-1-[[[(1S,2R)-3-[[[(1,1-dimethylethyl)amino]carbonyl](2-methylethyl)propylamino]-2-hydroxy-1-(phenylmethyl)propyl]amino]carbonyl]-2-methylpropyl]carbamate [Example 27] | 20.6 µM | 0.374 µM | 50%
4 | 5-Thiazolylmethyl-[(1S)-1-[[[(1S,2R)-3-[(2S)-2-[[(1,1-dimethylethyl)amino]carbonyl]-4-(phenylmethyl)-1-piperazinyl]-2-hydroxy-1-(phenylmethyl)propyl]amino]carbonyl]-2-methylpropyl]carbamate [Example 24] | 55.4 µM | 0.017 µM | 40%
5 | CC(C)c1nc(COC(=O)N[C@H](C(=O)N[C@@H](Cc2ccccc2)[C@H](O)CN2CCN(Cc3ccc4c(c3)OCO4)C[C@H]2C(=O)NC(C)(C)C)C(C)C)cs1 [Example 1, 2-(1-Methylethyl)-4-thiazolylmethyl-[(1S)-1-[[[(1S,2R)-3-[(2S)-4-(1,3-benzodioxol-5-ylmethyl)-2-[[(1,1-dimethylethyl)amino]carbonyl]-1-piperazinyl]-2-hydroxy-1-(phenylmethyl)propyl]amino]carbonyl]-2-methylpropyl]carbamate] | 12.8 µM | 0.003 µM | 60%
6 | CC(C)c1nc(COC(=O)N[C@H](C(=O)N[C@@H](Cc2ccccc2)[C@H](O)CN2CCN(Cc3ccccc3)C[C@H]2C(=O)NC(C)(C)C)C(C)C)cs1 [Example 2, 2-(1-Methylethyl)-4-thiazolylmethyl-[(1S)-1-[[[(1S,2R)-3-[(2S)-2-[[(1,1-dimethylethyl)amino]carbonyl]-4-(phenylmethyl)-1-piperazinyl]-2-hydroxy-1-(phenylmethyl)propyl]amino]carbonyl]-2-methylpropyl]carbamate] | 47.1 µM | 0.022 µM | 66%
7 | CC(C)c1nc(COC(=O)N[C@H](C(=O)N[C@@H](Cc2ccccc2)[C@H](O)CN2CCN(Cc3ccc(F)cc3)C[C@H]2C(=O)NC(C)(C)C)C(C)C)cs1 [Example 3] | 15.7 µM | 0.021 µM | 64%
8 | CC(C)c1nc(COC(=O)N[C@H](C(=O)N[C@@H](Cc2ccccc2)[C@H](O)CN2CCN(Cc3cccc(O)c3)C[C@H]2C(=O)NC(C)(C)C)C(C)C)cs1 [Example 5, 2-(1-Methylethyl)-4-thiazolylmethyl-[(1S)-1-[[[(1S,2R)-3-[(2S)-2-[[(1,1-dimethylethyl)amino]carbonyl]-4-[4-(3-hydroxyphenyl)methyl]-1-piperazinyl]-2-hydroxy-1-(phenylmethyl)propyl]amino]carbonyl]-2-methylpropyl]carbamate] | 16.7 µM | 0.04 µM | 69%
9 | CC(C)c1nc(COC(=O)N[C@H](C(=O)N[C@@H](Cc2ccccc2)[C@H](O)CN2CCN(Cc3cccnc3)C[C@H]2C(=O)NC(C)(C)C)C(C)C)cs1 [Example 6, 2-(1-Methylethyl)-4-thiazolylmethyl-[(1S)-1-[[[(1S,2R)-3-[(2S)-2-[[(1,1-dimethylethyl)amino]carbonyl]-4-(3-pyridinylmethyl)-1-piperazinyl]-2-hydroxy-1-(phenylmethyl)propyl]amino]carbonyl]-2-methylpropyl]carbamate] | 58.6 µM | 0.012 µM | 60%
10 | CC(C)c1nc(COC(=O)N[C@H](C(=O)N[C@@H](Cc2ccccc2)[C@H](O)CN2CCN(Cc3ccncc3)C[C@H]2C(=O)NC(C)(C)C)C(C)C)cs1 [Example 7, 2-(1-Methylethyl)-4-thiazolylmethyl-[(1S)-1-[[[(1S,2R)-3-[(2S)-2-[[(1,1-dimethylethyl)amino]carbonyl]-4-(4-pyridinylmethyl)-1-piperazinyl]-2-hydroxy-1-(phenylmethyl)propyl]amino]carbonyl]-2-methylpropyl]carbamate] | 55.2 µM | 0.017 µM | 73%
11 | CC(C)c1nc(COC(=O)N[C@H](C(=O)N[C@@H](Cc2ccccc2)[C@H](O)CN2CCN(Cc3ccc(O)cc3)C[C@H]2C(=O)NC(C)(C)C)C(C)C)cs1 [Example 8, 2-(1-Methylethyl)-4-thiazolylmethyl-[(1S)-1-[[[(1S,2R)-3-[(2S)-2-[[(1,1-dimethylethyl)amino]carbonyl]-4-[(4-hydroxyphenyl)methyl]-1-piperazinyl]-2-hydroxy-1-(phenylmethyl)propyl]amino]carbonyl]-2-methylpropyl]carbamate] | 18.9 µM | 0.047 µM | 54%
12 | CC(C)c1nc(COC(=O)N[C@H](C(=O)N[C@@H](Cc2ccccc2)[C@H](O)CN2CCN(Cc3nc4ccccc4[nH]3)C[C@H]2C(=O)NC(C)(C)C)C(C)C)cs1 [Example 9] | 18.4 µM | 0.046 µM | 65%
13 | CC(C)c1nc(COC(=O)N[C@H](C(=O)N[C@@H](Cc2ccccc2)[C@H](O)CN2CCN(Cc3ccc4ccccc4n3)C[C@H]2C(=O)NC(C)(C)C)C(C)C)cs1 [Example 10, 2-(1-Methylethyl)-4-thiazolylmethyl-[(1S)-1-[[[(1S,2R)-3-[(2S)-2-[[(1,1-dimethylethyl)amino]carbonyl]-4-(2-quinolinylmethyl)-1-piperazinyl]-2-hydroxy-1-(phenylmethyl)propyl]amino]carbonyl]-2-methylpropyl]carbamate] | 18.2 µM | 0.014 µM | 70%
14 | COc1ccc(CN2CCN(C[C@@H](O)[C@H](Cc3ccccc3)NC(=O)[C@@H](NC(=O)OCc3csc(C(C)C)n3)C(C)C)[C@H](C(=O)NC(C)(C)C)C2)cc1OC [Example 11, 2-(1-Methylethyl)-4-thiazolylmethyl[(1S)-1-[[[(1S,2R)-3-[(2S)-4-[(3,4-dimethoxylphenyl)methyl]-2-[[(1,1-dimethylethyl)amino]carbonyl]-1-piperazinyl]-2-hydroxy-1-(phenylmethyl)propyl]amino]carbonyl]-2-methylpropyl]carbamate] | 18.3 µM | 0.017 µM | 62%
15 | Cc1nc(COC(=O)N[C@H](C(=O)N[C@@H](Cc2ccccc2)[C@H](O)CN2CCN(Cc3ccc4c(c3)OCO4)C[C@H]2C(=O)NC(C)(C)C)C(C)C)cs1 [Example 15, 2-Methyl-4-thiazolylmethyl-[(1S)-1-[[[(1S,2R)-3-[(2S)-4-(1,3-benzodioxol-5-ylmethyl)-2-[[(1,1-dimethylethyl)amino]carbonyl]-1-piperazinyl]-2-hydroxy-1-(phenylmethyl)propyl]amino]carbonyl]-2-methylpropyl]carbamate] | 53.1 µM | 0.011 µM | 45%
